Assay results reported in US20070208087A1, “Compounds, compositions and methods for the treatment of inflammatory diseases” (priority 2001, published 2007).
Where “and” joins values, the source holds several entries; their conditions need not be identical. Identical values can stand only once. Like-named read-outs stand apart in the source and are kept apart here.

Tested on: Microglial cells
Experiment: Dose response inhibition of NO release from microglia, 0.75-200 μM (Example 8)
Type: cell-based
In short: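 Microglia plated at 1×10^5 cells/ml, stimulated with LPS/IFNγ and treated at 0.75, 1.56, 3.125, 6.25, 12.5, 25, 50, 100 and 200 μM. NO release measured after 48 hours by Griess reaction.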

[1] = dose 0.75 μM, 48 hours, single replicates
[2] = dose 1.56 μM, 48 hours, single replicates
[3] = dose 3.125 μM, 48 hours, single replicates
[4] = dose 6.25 μM, 48 hours, single replicates
[5] = dose 12.5 μM, 48 hours, single replicates
[6] = dose 25 μM, 48 hours, single replicates
[7] = dose 50 μM, 48 hours, single replicates
[8] = dose 100 μM, 48 hours, single replicates

## O=C(N[C@@H]1CCCC[C@H]1NC(=O)c1ccc(O)c(O)c1)c1ccc(O)c(O)c1 (relative stereo) [Compound 26, N,N′-bis(3,4-dihydroxybenzoyl)-trans-1,2-diaminocyclohexane]
Microglia, 48 h, dose 0.75 μM
  inhibition at 0.75 µM: -1.78%
Microglia, 48 h, dose 1.56 μM
  inhibition at 1.56 µM: 6%
Microglia, 48 h, dose 3.125 μM
  inhibition at 3.125 µM: 5.78%
Microglia, 48 h, dose 6.25 μM, 48 hours, read-out: Avg % Inhibition
  inhibition at 6.25 µM: 0.428%
Microglia, 48 h, dose 12.5 μM, 48 hours, read-out: Avg % Inhibition
  inhibition at 12.5 µM: 10.1%
Microglia, 48 h, dose 12.5 μM, 48 hours, single replicates, read-out: % inhibition
  inhibition at 12.5 µM: 10.1%
Microglia, 48 h, dose 25 μM, 48 hours, read-out: Avg % Inhibition
  inhibition at 25 µM: 10.1%
Microglia, 48 h, dose 25 μM, 48 hours, single replicates, read-out: % inhibition
  inhibition at 25 µM: 13.3%
Microglia, 48 h, dose 50 μM, 48 hours, read-out: Avg % Inhibition
  inhibition at 50 µM: 19.7%
Microglia, 48 h, dose 50 μM, 48 hours, single replicates, read-out: % inhibition
  inhibition at 50 µM: 19.7%
Microglia, 48 h, dose 100 μM, 48 hours, read-out: Avg % Inhibition
  inhibition at 100 µM: 23.6%
Microglia, 48 h, dose 200 μM, 48 hours, read-out: Avg % Inhibition
  inhibition at 200 µM: 44.5%
Microglia, 48 h, dose 200 μM, 48 hours, single replicates, read-out: % inhibition
  inhibition at 200 µM: 46%
Dose 0.75 μM, 48 hours
  μM NO release Avg: 24.756 µM
[1]
  % inhibition: 1.07% and −4.91% and −1.50%
  OD values (printed under head μM NO release): 0.21 and 0.206 and 0.215
  μM NO release: 24.688 µM and 24.063 µM and 25.517 µM
Dose 1.56 μM, 48 hours
  μM NO release Avg: 22.865 µM
[2]
  % inhibition: 9.42% and 2.36% and 6.21%
  OD values (printed under head μM NO release): 0.198 and 0.193 and 0.204
  μM NO release: 22.813 µM and 22.031 µM and 23.750 µM
Dose 3.125 μM, 48 hours
  μM NO release Avg: 22.917 µM
[3]
  % inhibition: 8.14% and 2.36%
  OD values (printed under head μM NO release): 0.197 and 0.195 and 0.204
  μM NO release: 22.656 µM and 22.344 µM and 23.750 µM
Dose 6.25 μM, 48 hours
  μM NO release Avg: 24.219 µM
[4]
  % inhibition: 3.64% and −2.14% and −0.21%
  OD values (printed under head μM NO release): 0.208 and 0.202 and 0.211
  μM NO release: 24.375 µM and 23.438 µM and 24.844 µM
Dose 12.5 μM, 48 hours
  μM NO release Avg: 21.875 µM
[5]
  OD values (printed under head μM NO release): 0.192
  μM NO release: 21.875 µM
Dose 25 μM, 48 hours
  μM NO release Avg: 21.875 µM
[6]
  OD values (printed under head μM NO release): 0.197 and 0.187 and 0.192
  μM NO release: 22.656 µM and 21.094 µM and 21.875 µM
Dose 50 μM, 48 hours
  μM NO release Avg: 19.531 µM
[7]
  % inhibition: 18.42% and 20.99%
  OD values (printed under head μM NO release): 0.175 and 0.177 and 0.179
  μM NO release: 19.219 µM and 19.531 µM and 19.844 µM
Dose 100 μM, 48 hours
  μM NO release Avg: 18.594 µM
[8]
  % inhibition: 17.13% and 19.06% and 34.48%
  OD values (printed under head μM NO release): 0.154 and 0.181 and 0.178
  μM NO release: 15.938 µM and 20.156 µM and 19.688 µM
Dose 200 μM, 48 hours
  μM NO release Avg: 13.490 µM
Dose 200 μM, 48 hours, single replicates
  % inhibition: 40.26% and 47.32%
